From article PMC8490515, “Neuromedin B receptor stimulation of Cav3.2 T-type Ca^2+ channels in primary sensory neurons mediates peripheral pain hypersensitivity” (Theranostics, 2021)
“Also recorded” adds a separate entry of the source. Blank lines part the entries; values can stand above or below the molecule they belong to.

Key:
[1] = tested on: Nmb-induced mechanical hypersensitivity in mice; test: Nmb-induced mechanical hypersensitivity, effect of pretreatment (Figure 7C); type: in vivo, mouse; conditions: intra-TG TTA-P2 1 nmol prior to 1 nmol Nmb; 1 h; n = 8 - 10
Method: Mice were housed on a 12 h light/dark cycle, maintained in a humidity- and temperature-controlled room with water available ad libitum and were acclimated to the experimenter for 2 d before the first behavioural observations. Experimenters were blinded to the treatment or genotypes of the mice. As described previously, [31], an Orofacial Stimulation Test (Ugo Basile, Italy) was used for the measurement of hypersensitivity to the mechanical stimulation of the trigeminal area. Briefly, the mice initially underwent one week of adaptation trainings after a 12 h fasting food period. Each mouse was then placed in a cage in which there was an Orofacial Stimulation Test system. […] The contact number and total duration of time the mouse spent acquiring the reward were analyzed with the ORO software.
For experiments that several time points are needed to be checked in 24 h, von Frey test was used, as orofacial stimulation test can be checked only once a day, [32]. […] Mechanical hypersensitivity was assessed as described in previous studies, [33]. In brief, the threshold was assessed with a set of von Frey hairs (0.02-2.56 g, Stoelting) applied to the whisker pad in an ascending series of trials, with three separate von Frey stimulations applied per series. The threshold was determined when mice moved their heads away briskly and strongly from at least one of the three stimuli. […]

[2] = tested on: CFA-induced mechanical allodynia in mice; test: CFA-induced inflammatory pain, mechanical allodynia; type: in vivo, mouse; conditions: rofecoxib 10 mg/kg (legend: 1 mg/kg, subcutaneous); 1 h; 2 d after CFA; n = 7 - 9
Method: For experiments that several time points are needed to be checked in 24 h, von Frey test was used, as orofacial stimulation test can be checked only once a day, [32]. For the von Frey test, the mice were placed in metal mesh boxes and allowed 30 min for habituation before examination. Mechanical hypersensitivity was assessed as described in previous studies, [33]. In brief, the threshold was assessed with a set of von Frey hairs (0.02-2.56 g, Stoelting) applied to the whisker pad in an ascending series of trials, with three separate von Frey stimulations applied per series. The threshold was determined when mice moved their heads away briskly and strongly from at least one of the three stimuli. Dixon's up-down method was used to determine the 50% probability of escape threshold. For thermal test, a heat stimulus was applied to the maxillary whisker pad skin by radiant heat (IITC Life Science). Heat sensitivity was expressed as head-withdrawal latency (HWL). The radiant heat intensity was adjusted so that basal HWL is between 10-15 s, with a cut-off of 18 s to prevent tissue damage. Chronic inflammatory pain was induced by subcutaneous injection of 20 μL of complete Freund's adjuvant (CFA) into the left side of the buccal pad. […]

[3] = biological target: Human neuromedin B receptor expressed in HEK293 cells (human) (UniProt P28336)
Sequence of Human neuromedin B receptor expressed in HEK293 cells (human) (P28336 whole entry): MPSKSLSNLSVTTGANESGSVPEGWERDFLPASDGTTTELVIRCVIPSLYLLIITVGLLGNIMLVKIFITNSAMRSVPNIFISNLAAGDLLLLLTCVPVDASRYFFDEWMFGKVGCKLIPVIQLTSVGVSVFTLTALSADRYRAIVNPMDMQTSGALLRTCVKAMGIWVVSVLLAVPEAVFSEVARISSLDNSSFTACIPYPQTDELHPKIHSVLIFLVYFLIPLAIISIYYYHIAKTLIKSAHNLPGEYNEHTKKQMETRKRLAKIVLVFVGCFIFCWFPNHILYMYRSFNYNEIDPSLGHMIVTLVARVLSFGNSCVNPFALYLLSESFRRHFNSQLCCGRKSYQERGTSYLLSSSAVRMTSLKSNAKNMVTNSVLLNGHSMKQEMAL

Molecule: CC1(C)C[C@@H](CN2CCC(F)(CNC(=O)c3cc(Cl)cc(Cl)c3)CC2)CCO1 [TTA-P2]
effect on Nmb-induced mechanical hypersensitivity [1]: significantly attenuated mechanical hypersensitivity

Molecule: CS(=O)(=O)c1ccc(C2=C(c3ccccc3)C(=O)OC2)cc1 [rofecoxib]
CFA-induced mechanical allodynia [2]: reversed; also recorded: reduced the mechanical allodynia

increase of Cav3.2 channel currents in HEK293 cells co-expressing human NmbR and Cav3.2, whole-cell patch clamp, dose-response of Nmb, EC50 [3]: 47.6 nM
Molecule: Neuromedin B (peptide)
